From patent publication EP0664802B1, “N-ARYLHETEROARYLALKYL 1-PHENYL-IMIDAZOL-2-ONE COMPOUNDS FOR TREATMENT OF CIRCULATORY DISORDERS” (G.D. SEARLE & CO., priority 1992, dated 1994)
Several values for one entry are separate records, joined by “and”; a condition that tells them apart may be missing. Equal entries are not always repeated.

Experiments:
[1] = test system: pressor response to AII; experiment: Assay C: In Vivo Intragastric Pressor Assay Response for AII antagonists; parameters: species or system Sprague-Dawley rats; settings: Dose: 3 mg/kg (i.g.); for Assay C Duration: AII challenges up to 180 minutes after gavage; for Assay C Inhibition (%): inhibition of pressor response to 30 ng/kg AII bolus, conscious rats
Experimental: Assay C: In Vivo Intragastric Pressor Assay Response for All Antagonists
Male Sprague-Dawley rats weighing 225-300 grams were anesthetized with methohexital (30 mg/kg, i.p.) and catheters were implanted into the femoral artery and vein. The catheters were tunneled subcutaneously to exit dorsally, posterior to the head and between the scapulae. The catheters were filled with heparin (1000 units/ml of saline). The rats were returned to their cage and allowed regular rat chow and water ad libitum. After full recovery from surgery (3-4 days), rats were placed in Lucite holders and the arterial line was connected to a pressure transducer. Arterial pressure was recorded on a Gould polygraph (mmHg). Angiotensin II was administered as a 30 ng/kg bolus via the venous catheter delivered in a 50 µl volume with a 0.2 ml saline flush. The pressor response in mm Hg was measured by the difference from pre-injection arterial pressure to the maximum pressure achieved. The AII injection was repeated every 10 minutes until three consecutive injections yielded responses within 4 mmHg of each other. These three responses were then averaged and represented the control response to AII. The test compound was suspended in 0.5% methylcellulose in water and was administered by gavage. The volume administered was 2 ml/kg body weight. The standard dose was 3 mg/kg. Angiotensin II bolus injections were given at 30, 45, 60, 75, 120, 150, and 180 minutes after gavage. The pressor response to AII was measured at each time point. The rats were then returned to their cage for future testing. A minimum of 3 days was allowed between tests. Percent inhibition was calculated for each time point following gavage by the following formula: [(Control Response - Response at time point)/Control Response] X 100 [formula] .

[2] = test system: rabbit aortic rings; experiment: Assay B: In Vitro Vascular Smooth Muscle Response for AII (antagonist activity, isometric force); format: cell-based; settings: antagonist at 10^-5 M, 5 min before AII challenge; Schild; aorta rings from two rabbits (two values per cell)
Experimental: Assay B: In Vitro Vascular Smooth Muscle-Response for AII
The compounds of the invention were tested for antagonist activity in rabbit aortic rings. Male New Zealand white rabbits (2-2.5 kg) were sacrificed using an overdose of pentobarbital and exsanguinated via the carotid arteries. The thoracic aorta was removed, cleaned of adherent fat and connective tissue and then cut into 3-mm ring segments. The endothelium was removed from the rings by gently sliding a rolled-up piece of filter paper into the vessel lumen. The rings were then mounted in a water-jacketed tissue bath, maintained at 37°C, between moveable and fixed ends of a stainless steel wire with the moveable end attached to an FT03 Grass transducer coupled to a Model 7D Grass Polygraph for recording isometric force responses. The bath was filled with 20 ml of oxygenated (95% oxygen/5% carbon dioxide) Krebs solution of the following composition (mM): 130 NaCl, 15 NaHC03, 15 KCl, 1.2 NaH2P04, 1.2 MgS04, 2.5 CaC12, and 11.4 glucose. The preparations were equilibrated for one hour before approximately one gram of passive tension was placed on the rings. Angiotensin II concentration-response curves were then recorded (3 X 10^-10 to 1 x 10^-5 M). Each concentration of AII was allowed to elicit its maximal contraction, and then AII was washed out repeatedly for 30 minutes before rechallenging with a higher concentration of AII. Aorta rings were exposed to the test antagonist at 10^-5 M for 5 minutes before challenging with AII. Adjacent segments of the same aorta ring were used for all concentration-response curves in the presence or absence of the test antagonist. The effectiveness of the test compound was expressed in terms of pA2 values and were calculated according to H.O. Schild [Br. J. Pharmacol. Chemother., 2,189-206 (1947)]. The pA2 value is […] of the antagonist which increases the EC50 value for AII by a factor of two. Each test antagonist was evaluated in aorta rings from two rabbits.

Structure (SMILES): CCCCc1cn(-c2ccccc2C(C)(C)C)c(=O)n1Cc1ccc(-c2ccccc2-c2nnn[nH]2)nc1 [Example 2, 1-(2-tertbutylphenyl)-4-butyl-1,3-dihydro-3-[[6-[2-(1H-tetrazol-5-yl)phenyl]-3-pyridinyl]methyl]-2H-imidazol-2-one]
- Assay C Duration [1]: >180 min
- Assay C Inhibition (%) [1]: 40%

Structure (SMILES): CCCCc1cn(-c2c(C(C)C)cccc2C(C)C)c(=O)n1Cc1ccc(-c2ccccc2-c2nnn[nH]2)nc1 [Example 8, 1-(2,6-diisopropylphenyl)-4-butyl-1,3-dihydro-3-[[6-[2-(1H-tetrazol-5-yl)phenyl]-3-pyridinyl]methyl]-2H-imidazol-2-one]
- Assay B pA2 [2]: 7.14 and 7.07

Structure (SMILES): CCCCc1cn(-c2c(CC)cccc2CC)c(=O)n1Cc1ccc(-c2ccccc2-c2nnn[nH]2)nc1 [Example 7, 1-(2,6-diethylphenyl)-4-butyl-1,3-dihydro-3-[[6-[2-(1H-tetrazol-5-yl)phenyl]-3-pyridinyl]methyl]-2H-imidazol-2-one]
- Assay C Inhibition (%) [1]: 20%

Structure (SMILES): CCCCc1cn(-c2ccccc2CC)c(=O)n1Cc1ccc(-c2ccccc2-c2nnn[nH]2)nc1 [Example 1, 1-(2-ethylphenyl)-4-butyl-1,3-dihydro-3-[[6-[2-(1H-tetrazol-5-yl)phenyl]-3-pyridinyl]methyl]-2H-imidazol-2-one]
- Assay C Duration [1]: >180 min
- Assay C Inhibition (%) [1]: 80%

Structure (SMILES): CCCCc1cn(-c2c(C)cccc2Cl)c(=O)n1Cc1ccc(-c2ccccc2-c2nnn[nH]2)nc1 [Example 4, 1-(2-chloro-6-methylphenyl)-4-butyl-1,3-dihydro-3-[[6-[2-(1H-tetrazol-5-yl)phenyl]-3-pyridinyl]methyl]-2H-imidazol-2-one]
- Assay C Duration [1]: >180 min
- Assay C Inhibition (%) [1]: 75%

Structure (SMILES): CCCCc1cn(-c2c(OC)cccc2OC)c(=O)n1Cc1ccc(-c2ccccc2-c2nnn[nH]2)nc1 [Example 3, 1-(2,6-dimethoxyphenyl)-4-butyl-1,3-dihydro-3-[[6-[2-(1H-tetrazol-5-yl)phenyl]-3-pyridinyl]methyl]-2H-imidazol-2-one]
- Assay C Duration [1]: >180 min
- Assay C Inhibition (%) [1]: 25%

Structure (SMILES): CCCCc1cn(-c2c(C)cc(C)cc2C)c(=O)n1Cc1ccc(-c2ccccc2-c2nnn[nH]2)nc1 [Example 5, 1-(2,4,6-trimethylphenyl)-4-butyl-1,3-dihydro-3-[[6-[2-(1H-tetrazol-5-yl)phenyl]-3-pyridinyl]methyl]-2H-imidazol-2-one]
- Assay B pA2 [2]: 8.59 and 8.89
- Assay C Duration [1]: >180 min
- Assay C Inhibition (%) [1]: 70%

Structure (SMILES): CCCCc1cn(-c2c(C)cc(C(C)(C)C)cc2C)c(=O)n1Cc1ccc(-c2ccccc2-c2nnn[nH]2)nc1 [Example 6, 1-(2,6-dimethyl-4-tertbutylphenyl)-4-butyl-1,3-dihydro-3-[[6-[2-(1H-tetrazol-5-yl)phenyl]-3-pyridinyl]methyl]-2H-imidazol-2-one]
- Assay B pA2 [2]: 8.51 and 8.78
